# Reference: PMC11178805, “Ligand-based design of [^18F]OXD-2314 for PET imaging in non-Alzheimer’s disease tauopathies” (Nature Communications, 2024)
# Where “and” joins values, the source holds several entries; their conditions need not be identical. Equal values may be shown once.
# Columns and labels:
# [1] = biological target: 3R/4R-tau aggregates in AD tissue (Homo sapiens, UniProt P10636); test: Competition binding vs [^3H]OXD-2314 in AD tissue
# Protocol: (§1) Fresh frozen, autopsy-confirmed human PD anterior cingulate cortex brain tissue blocks (1 cm^3) were obtained from Dr. Thomas Beach at Banner/Sun Health AZ with funding from the Michael J. Fox Foundation and contained frequent α-synuclein aggregates and no other detectable aggregated amyloid species. The frozen tissue blocks were prepared for the binding assays as previously described[47],[48], except that equal quantities of the homogenates of three AD brains (AD1-AD3, Table S1) were pooled, as were homogenates from three PSP brains (PSP1-PSP3), three CBD brains (CBD1-CBD3), three Pick’s brains (PiD1-PiD3), and 4 PD brains (PD1-PD4) in order to help minimize the inter-subject variability within the different neuropathological groups. Individual subcortical brain tissues from a PSP subject (PSP4) and a CBD subject (CBD4), as well as with the middle frontal cortex of a control subject, were prepared for the binding assays as previously described[47],[48].
# (§2) The equilibrium inhibition constant (Ki) values of the unlabeled compounds were determined versus tritium-labeled radioligands using published methods.
# [2] = biological target: T1, 4R-tau aggregates in PSP tissue (Homo sapiens, UniProt P10636); test: Competition binding vs [^3H]OXD-2314 in PSP tissue
# T1 construct: tissue Neurodegenerative Disease Brain Bank at UCSF
# T1 sequence (P10636 1-441 isoform P10636-8): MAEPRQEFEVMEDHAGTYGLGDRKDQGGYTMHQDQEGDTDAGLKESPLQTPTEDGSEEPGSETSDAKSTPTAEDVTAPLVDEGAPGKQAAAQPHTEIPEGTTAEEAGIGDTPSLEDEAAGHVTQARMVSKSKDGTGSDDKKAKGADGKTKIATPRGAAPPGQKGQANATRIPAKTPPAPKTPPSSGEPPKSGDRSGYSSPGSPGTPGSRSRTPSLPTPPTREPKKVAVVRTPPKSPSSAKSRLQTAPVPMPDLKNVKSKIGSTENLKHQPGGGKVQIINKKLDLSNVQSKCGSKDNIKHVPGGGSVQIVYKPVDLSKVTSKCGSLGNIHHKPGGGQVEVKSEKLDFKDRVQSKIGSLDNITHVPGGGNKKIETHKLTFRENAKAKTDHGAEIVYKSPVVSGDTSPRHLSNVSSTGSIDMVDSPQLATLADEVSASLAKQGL
# Protocol: as §1, §2
# [3] = Dynamic brain PET-CT with [^18F]OXD-2314 in rats; type: in vivo
# Protocol: Eight rats were used in preclinical PET scans with [^18F]OXD-2314: two for dynamic brain imaging, and six for whole-body biodistribution of radioactivity and dose estimation. Another five rats were used for radiometabolite analysis in brain homogenates and blood plasma. Dynamic PET-CT imaging in healthy wild-type (wt) rats were performed following intravenous administration of [^18F]OXD-2314 (17.9 and 23.8 MBq, n = 2, one female and one male). Radioactivity reached an initial peak of 2.3 standardized uptake value (SUV) within two minutes in whole brain, followed by a steady washout of radioactivity in the brain to below 0.3 SUV at the end of the 120 min acquisition time (Fig. 4). Distribution of radioactivity was homogenous among brain regions, but with the female rat having slower clearance of radioactivity from the brain and thus higher overall brain radioactivity than the male rat.
# A total of 8 healthy adult rats (Sprague-Dawley, 384 ± 56 g; 4/4 M/F) underwent PET imaging following bolus injection of [^18F]OXD-2314 (20.5 ± 4.1 MBq), with two animals (M/F) scanned for 120 min with the head in the centre of PET field-of-view (FOV) whereas six animals (3/3 M/F) scanned for 180 min at three bed positions (head-to-bottom) with 15 frames (2×15 s, 2×30 s, 2×60 s, 1×120 s, 1×180 s, 2×240 s, 2×300 s, and 3×600 s) to cover the whole body. PET images were acquired using a nanoScan™ PET/CT scanner (Mediso, Budapest, Hungary) with rats anesthetized under isoflurane in O2 (1.5–2%, 1 L/min) throughout the imaging session and monitored closely for body temperature and respiration rate. […] Normalized cumulated activities of each organ were calculated using trapezoidal integration of the area under the TACs plus extrapolation of the TAC to infinity with natural decay of the radiotracer. […] SUV were calculated by normalizing regional radioactivity for injected radioactivity and body weight.
# 3R/4R-tau aggregates in AD tissue, sequence (P10636 623-758 limits assumed): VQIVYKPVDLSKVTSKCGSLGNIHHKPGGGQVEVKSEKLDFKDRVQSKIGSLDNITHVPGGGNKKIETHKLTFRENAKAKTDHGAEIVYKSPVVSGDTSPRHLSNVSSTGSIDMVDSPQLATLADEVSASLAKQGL
structure (smiles),measurement,setting,value
"COC1CCCN(c2ccc(-c3cc4cc(O)ccc4[nH]3)c(F)n2)C1 (centres unmarked) [OXD-2314, 2-(2-fluoro-6-(3-methoxypiperidin-1-yl)pyridin-3-yl)-1H-indol-5-ol]",Ki,[1],4.8 ± 0.3 nM
same,Ki,[2],5.8 ± 0.2 nM
CO[C@H]1CCCN(c2ccc(-c3cc4cc(O)ccc4[nH]3)c([18F])n2)C1 [[^18F]OXD-2314],ratio initial maximum to late minimum brain radioactivity,[3]; rats,~ 8
same,whole brain radioactivity at end of acquisition,"[3]; rats, end of the 120 min acquisition",below 0.3 SUV
same,initial peak whole brain uptake (SUV),"[3]; wild-type rats, i.v., within two minutes, n = 2",2.3 SUV and > 2 SUV
